# Counter-ions that a name gives are not always drawn.
# Biological target: T1, PARP-1 (Homo sapiens, UniProt P09874)
# T1 construct: purchased Trevigen 4668-500-01
# Test: PARP-1 SPA assay
# Assay type: biochemical
# Details: not given
# Experimental: Assay buffer: 100 mM Tris pH 8, 4 mM MgCl2, 4 mM Spermine, 200 mM KCl, 0.04% Nonidet P-40.
# Nicotinamide-adenine dinucleotide (NAD)/DNA Mix: [^3H-NAD] (250 uCi/ml, 0.4 ul, Perkin-Elmer NET-443H), NAD (1.5 mM, 0.05 ul, SIGMA N-1511), Biotinylated-NAD (250 uM, 0.03 ul, Trevigen 4670-500-01), Activated calf thymus (1 mg/ml, 0.05 ul, Amersham Biosciences 27-4575), H2O (to 10 ul).
# Developing Mix: Streptavidin SPA beads (5 mg/ml, Amersham Biosciences RPNQ 0007) dissolved in 500 mM EDTA.
# The reaction is performed in 96-well microplate with a final volume of 50 uL/well. Add 5 ul 5% DMSO/compound solution, add enzyme mix (35 ul), start the reaction by adding NAD/DNA mix (10 uL) and incubate for 2 hrs at RT. Stop the reaction by adding developing mix (25 ul) and incubate 15 min at RT. Measure using a Packard TOP COUNT instrument.
# T1 sequence (P09874 whole entry): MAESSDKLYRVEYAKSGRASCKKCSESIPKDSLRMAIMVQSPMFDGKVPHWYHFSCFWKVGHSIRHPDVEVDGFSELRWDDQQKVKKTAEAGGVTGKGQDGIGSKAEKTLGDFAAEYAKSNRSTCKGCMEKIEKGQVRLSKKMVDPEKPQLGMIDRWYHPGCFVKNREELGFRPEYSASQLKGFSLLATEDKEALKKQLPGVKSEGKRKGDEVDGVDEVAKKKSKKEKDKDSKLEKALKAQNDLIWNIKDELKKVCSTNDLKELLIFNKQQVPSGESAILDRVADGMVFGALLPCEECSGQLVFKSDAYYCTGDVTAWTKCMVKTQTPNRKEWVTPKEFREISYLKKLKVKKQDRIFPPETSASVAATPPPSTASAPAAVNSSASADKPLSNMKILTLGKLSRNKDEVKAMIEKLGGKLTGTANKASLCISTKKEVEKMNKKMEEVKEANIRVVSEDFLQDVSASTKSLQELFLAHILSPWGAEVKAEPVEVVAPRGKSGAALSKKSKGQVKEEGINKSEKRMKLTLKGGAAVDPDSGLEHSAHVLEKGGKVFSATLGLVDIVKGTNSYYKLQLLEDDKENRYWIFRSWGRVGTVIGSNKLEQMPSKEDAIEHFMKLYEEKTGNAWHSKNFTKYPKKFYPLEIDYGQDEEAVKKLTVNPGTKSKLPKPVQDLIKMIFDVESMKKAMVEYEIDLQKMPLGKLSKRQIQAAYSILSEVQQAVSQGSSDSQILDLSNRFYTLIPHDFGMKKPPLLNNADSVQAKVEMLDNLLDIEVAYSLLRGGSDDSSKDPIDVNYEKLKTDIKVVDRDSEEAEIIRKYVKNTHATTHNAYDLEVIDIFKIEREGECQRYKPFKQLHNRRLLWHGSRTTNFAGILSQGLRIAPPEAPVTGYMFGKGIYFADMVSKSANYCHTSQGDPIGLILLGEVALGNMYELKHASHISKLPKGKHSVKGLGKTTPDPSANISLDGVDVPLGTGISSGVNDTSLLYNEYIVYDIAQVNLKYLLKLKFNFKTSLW
row,SMILES,IC50 [nM]
1,"Cc1c(Cc2ccc(F)c(C(=O)N3CCN([C@H]4CC[C@H](F)C4)C(=O)C3)c2)n[nH]c(=O)c1C (relative stereo) [Example 212, 6-[4-Fluoro-3-({4-[(trans)-3-fluorocyclopentyl]-3-oxopiperazin-1-yl}carbonyl)benzyl]-4,5-dimethylpyridazin-3(2H)-one]",5 to 25
2,"Cc1c(Cc2ccc(F)c(C(=O)N3CCN(C)C(=O)C3)c2)n[nH]c(=O)c1C [Example 7, 3-{4-Fluoro-3-[(4-methyl-3-oxopiperazin-1-yl)carbonyl]benzyl}-4,5-dimethyl-6-oxo-1,6-dihydropyridazin-1-ium trifluoroacetate]",5 to 25
3,"COC(=O)CN1CCN(C(=O)c2cc(Cc3n[nH]c(=O)c(C)c3C)ccc2F)CC1=O [Example 24, Methyl (4-{5-[(4,5-dimethyl-6-oxo-1,6-dihydropyridazin-3-yl)methyl]-2-fluorobenzoyl}-2-oxopiperazin-1-yl)acetate trifluoroacetate]",5 to 25
4,"Cc1c(Cc2ccc(F)c(C(=O)N3CCCN(C4CCCCC4)C(=O)C3)c2)n[nH]c(=O)c1C [Example 34, 6-{3-[(4-Cyclohexyl-3-oxo-1,4-diazepan-1-yl)carbonyl]-4-fluorobenzyl}-4,5-dimethyl-3-oxo-2,3-dihydropyridazin-1-ium trifluoroacetate]",5 to 25
5,"Cc1c(Cc2ccc(F)c(C(=O)N3CCN(C4CCCCC4)C(=O)C3(C)C)c2)n[nH]c(=O)c1C [Example 37, 3-{3-[(4-Cyclohexyl-2,2-dimethyl-3-oxopiperazin-1-yl)carbonyl]-4-fluorobenzyl}-4,5-dimethyl-6-oxo-1,6-dihydropyridazin-1-ium trifluoroacetate]",25 to 150
6,"Cc1c(Cc2ccc(F)c(C(=O)N3C[C@@H]4C[C@H]3C(=O)N4c3ccccc3)c2)n[nH]c(=O)c1C [Example 41, (1S,4S)-5-{5-[(4,5-Dimethyl-6-oxo-1,6-dihydropyridazin-3-yl)methyl]-2-fluorobenzoyl}-2-phenyl-2,5-diazabicyclo[2.2.1]heptan-3-one trifluoroacetate]",25 to 150
7,"Cc1c(Cc2ccc(F)c(C(=O)N3CCN(CCF)C(=O)C3)c2)n[nH]c(=O)c1C [Example 58, 6-(4-Fluoro-3-{[4-(2-fluoroethyl)-3-oxopiperazin-1-yl]carbonyl}benzyl)-4,5-dimethyl-3-oxo-2,3-dihydropyridazin-1-ium trifluoroacetate]",5 to 25
8,"Cc1c(Cc2ccc(F)c(C(=O)N3CCCN(C4CC4)C(=O)C3)c2)n[nH]c(=O)c1C [Example 82, 1-Cyclopropyl-4-{5-[(4,5-dimethyl-6-oxo-1,6-dihydropyridazin-3-yl)methyl]-2-fluorobenzoyl}-1,4-diazepan-2-one]",25 to 150

# System: BRCA-1 silenced HeLa cells (HeLa shBRCA1-GFP)
# Test: Proliferation assay in BRCA-1 silenced HeLa cells
# Assay type: cell-based
# Details: Homo sapiens; BRCA1 silenced HeLa cells, 168 hours; read-out: CC50 in the BRCA1 silenced HeLa cells
# How it was run: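 Antiproliferative effect was read by Celltiter Blue fluorescence after 168 h of compound treatment at 37° C., 5% CO2. Cells were matched HeLa pairs, BRCA1-shRNA (>80% silenced, GFP) versus non-shRNA vector control, in DMEM with 10% FCS.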
row,SMILES,CC50 [nM]
1,"Cc1c(Cc2ccc(F)c(C(=O)N3CC(=O)N(c4ccc(C#N)c(F)c4)[C@H](C)C3)c2)n[nH]c(=O)c1C [Example 191, 4-((2R)-4-{5-[(4,5-Dimethyl-6-oxo-1,6-dihydropyridazin-3-yl)methyl]-2-fluorobenzoyl}-2-methyl-6-oxopiperazin-1-yl)-2-fluorobenzonitrile]",< 50
2,"Cc1c(Cc2ccc(F)c(C(=O)N3CCN([C@@H](C)C(F)(F)F)C(=O)C3)c2)n[nH]c(=O)c1C [Example 192, 6-[4-Fluoro-3-({3-oxo-4-[(1S)-2,2,2-trifluoro-1-methylethyl]piperazin-1-yl}carbonyl)benzyl]-4,5-dimethylpyridazin-3(2H)-one]",50 to 500
3,"Cc1c(Cc2ccc(F)c(C(=O)N3CC(=O)N(c4cc(F)cc(F)c4)[C@H](C)C3)c2)n[nH]c(=O)c1C [Example 193, 6-(3-{[(3R)-4-(3,5-Difluorophenyl)-3-methyl-5-oxopiperazin-1-yl]carbonyl}-4-fluorobenzyl)-4,5-dimethylpyridazin-3(2H)-one]",< 50
4,"Cc1c(Cc2ccc(F)c(C(=O)N3CC(=O)N(c4ccc(Cl)cc4)[C@H](C)C3)c2)n[nH]c(=O)c1C [Example 194, 6-(3-{[(3R)-4-(4-Chlorophenyl)-3-methyl-5-oxopiperazin-1-yl]carbonyl}-4-fluorobenzyl)-4,5-dimethylpyridazin-3(2H)-one]",< 50
5,"Cc1c(Cc2ccc(F)c(C(=O)N3CC(=O)N(c4cccs4)[C@H](C)C3)c2)n[nH]c(=O)c1C [Example 195, 6-(4-Fluoro-3-{[(3R)-3-methyl-5-oxo-4-(2-thienyl)piperazin-1-yl]carbonyl}benzyl)-4,5-dimethylpyridazin-3(2H)-one]",< 50
6,"Cc1c(Cc2ccc(F)c(C(=O)N3CC(=O)N(c4ccc(Cl)cc4F)[C@H](C)C3)c2)n[nH]c(=O)c1C [Example 196, 6-(3-{[(3R)-4-(4-Chloro-2-fluorophenyl)-3-methyl-5-oxopiperazin-1-yl]carbonyl}-4-fluorobenzyl)-4,5-dimethylpyridazin-3(2H)-one]",< 50
7,"Cc1c(Cc2ccc(F)c(C(=O)N3CC(=O)N(c4ccc(F)c(C#N)c4)[C@H](C)C3)c2)n[nH]c(=O)c1C [Example 197, 5-((2R)-4-{5-[(4,5-Dimethyl-6-oxo-1,6-dihydropyridazin-3-yl)methyl]-2-fluorobenzoyl}-2-methyl-6-oxopiperazin-1-yl)-2-fluorobenzonitrile]",< 50
8,"Cc1c(Cc2ccc(F)c(C(=O)N3CC(=O)N(c4cc(F)cc(Cl)c4)[C@H](C)C3)c2)n[nH]c(=O)c1C [Example 198, 6-(3-{[(3R)-4-(3-Chloro-5-fluorophenyl)-3-methyl-5-oxopiperazin-1-yl]carbonyl}-4-fluorobenzyl)-4,5-dimethylpyridazin-3(2H)-one]",< 50
9,"Cc1c(Cc2ccc(F)c(C(=O)N3CC(=O)N(c4ccc(F)c(Cl)c4)[C@H](C)C3)c2)n[nH]c(=O)c1C [Example 199, 6-(3-{[(3R)-4-(3-Chloro-4-fluorophenyl)-3-methyl-5-oxopiperazin-1-yl]carbonyl}-4-fluorobenzyl)-4,5-dimethylpyridazin-3(2H)-one]",< 50
10,"Cc1c(Cc2ccc(F)c(C(=O)N3CCN([C@H](C)C(F)(F)F)C(=O)C3)c2)n[nH]c(=O)c1C [Example 200, 6-[4-Fluoro-3-({3-oxo-4-[(1R)-2,2,2-trifluoro-1-methylethyl]piperazin-1-yl}carbonyl)benzyl]-4,5-dimethylpyridazin-3(2H)-one]",< 50
11,"Cc1c(Cc2ccc(F)c(C(=O)N3CC(=O)N(c4ccc(C#N)cc4F)[C@H](C)C3)c2)n[nH]c(=O)c1C [Example 201, 4-((2R)-4-{5-[(4,5-Dimethyl-6-oxo-1,6-dihydropyridazin-3-yl)methyl]-2-fluorobenzoyl}-2-methyl-6-oxopiperazin-1-yl)-3-fluorobenzonitrile]",< 50
12,"Cc1c(Cc2ccc(F)c(C(=O)N3CC(=O)N(c4cc(F)cc(C#N)c4)[C@H](C)C3)c2)n[nH]c(=O)c1C [Example 202, 3-((2R)-4-{5-[(4,5-Dimethyl-6-oxo-1,6-dihydropyridazin-3-yl)methyl]-2-fluorobenzoyl}-2-methyl-6-oxopiperazin-1-yl)-5-fluorobenzonitrile]",< 50
13,"Cc1c(Cc2ccc(F)c(C(=O)N3CC(=O)N(c4ccc(F)c(F)c4)[C@H](C)C3)c2)n[nH]c(=O)c1C [Example 203, 6-(3-{[(3R)-4-(3,4-Difluorophenyl)-3-methyl-5-oxopiperazin-1-yl]carbonyl}-4-fluorobenzyl)-4,5-dimethylpyridazin-3(2H)-one]",< 50
14,"Cc1c(Cc2ccc(F)c(C(=O)N3CCN(C(C)C4CC4)C(=O)C3)c2)n[nH]c(=O)c1C (centres unmarked) [Example 204, 6-(3-{[4-(1-Cyclopropylethyl)-3-oxopiperazin-1-yl]carbonyl}-4-fluorobenzyl)-4,5-dimethylpyridazin-3(2H)-one]",50 to 500
15,"Cc1c(Cc2ccc(F)c(C(=O)N3CC(=O)N(c4cc(Cl)ccc4F)[C@H](C)C3)c2)n[nH]c(=O)c1C [Example 205, 6-(3-{[(3R)-4-(5-Chloro-2-fluorophenyl)-3-methyl-5-oxopiperazin-1-yl]carbonyl}-4-fluorobenzyl)-4,5-dimethylpyridazin-3(2H)-one]",< 50
16,"Cc1c(Cc2ccc(F)c(C(=O)N3CC(=O)N(c4cccc(Cl)c4F)[C@H](C)C3)c2)n[nH]c(=O)c1C [Example 206, 6-(3-{[(3R)-4-(3-Chloro-2-fluorophenyl)-3-methyl-5-oxopiperazin-1-yl]carbonyl}-4-fluorobenzyl)-4,5-dimethylpyridazin-3(2H)-one]",< 50
17,"Cc1c(Cc2ccc(F)c(C(=O)N3CC(=O)N(c4ccc(Cl)c(F)c4)[C@@H](C)C3)c2)n[nH]c(=O)c1C [Example 208, 6-(3-{[(3S)-4-(4-Chloro-3-fluorophenyl)-3-methyl-5-oxopiperazin-1-yl]carbonyl}-4-fluorobenzyl)-4,5-dimethylpyridazin-3(2H)-one]",< 50
18,"Cc1c(Cc2ccc(F)c(C(=O)N3CC(=O)N(C4CC(F)(F)C4)[C@@H](C)C3)c2)n[nH]c(=O)c1C [Example 209, 6-(3-{[(3S)-4-(3,3-Difluorocyclobutyl)-3-methyl-5-oxopiperazin-1-yl]carbonyl}-4-fluorobenzyl)-4,5-dimethylpyridazin-3(2H)-one]",< 50

# — patent US8268827B2, “Pyridazinone derivatives as PARP inhibitors” (Istituto di Ricerche di Biologia Molecolare P. Angeletti …, priority 2007, dated 2012)
